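A five-concentration, 48-hour dose response in 96-well plates underlies each endpoint, interpolated linearly between surrounding concentrations. At the TGI there is no net growth.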
Experiments:
Test in all cases: inhibition of tumour cell growth, NCI panel, 48 h
SK-OV-3 ovarian = test system: SK-OV-3 ovarian
HS 578T breast = test system: HS 578T breast
IGROV1 ovarian = test system: IGROV1 ovarian
NCI/ADR-RES ovarian = test system: NCI/ADR-RES ovarian
MCF7 breast = test system: MCF7 breast
HCT-15 colon = test system: HCT-15 colon
HOP-62 NSCLC = test system: HOP-62 NSCLC
K-562 leukemia = test system: K-562 leukemia
CCRF-CEM leukemia = test system: CCRF-CEM leukemia
SK-MEL-28 melanoma = test system: SK-MEL-28 melanoma
MOLT-4 leukemia = test system: MOLT-4 leukemia
SK-MEL-2 melanoma = test system: SK-MEL-2 melanoma

CC1=CC[C@@]2(CO)[C@@H]([C@@H]1C)[C@H]1CC[C@@H]3[C@@]4(C)CC[C@H](O)C(C)(C)[C@@H]4CC[C@@]3(C)[C@]1(C)C[C@@H]2O
TGI (SK-OV-3 ovarian): 39.4 µM
TGI (HS 578T breast): > 100 µM
TGI (IGROV1 ovarian): 82.3 µM
TGI (NCI/ADR-RES ovarian): > 100 µM
TGI (MCF7 breast): > 100 µM
TGI (HCT-15 colon): > 100 µM
TGI (HOP-62 NSCLC): 39.8 µM
TGI (K-562 leukemia): > 100 µM
TGI (CCRF-CEM leukemia): > 100 µM
TGI (SK-MEL-28 melanoma): > 100 µM
TGI (MOLT-4 leukemia): > 100 µM

CC(NC(=O)c1ccccc1)NC(=O)C(C)C(=O)Nc1ccccc1 (centres undefined)
TGI (SK-OV-3 ovarian): > 100 µM
TGI (HS 578T breast): > 100 µM
TGI (IGROV1 ovarian): > 100 µM
TGI (NCI/ADR-RES ovarian): > 100 µM
TGI (MCF7 breast): > 100 µM
TGI (SK-MEL-2 melanoma): > 100 µM
TGI (HCT-15 colon): > 100 µM
TGI (K-562 leukemia): > 100 µM
TGI (CCRF-CEM leukemia): > 100 µM
TGI (MOLT-4 leukemia): > 100 µM

CC(=O)OC1CCCn2c1nc1c2C(=O)C(C)=C(N2CC2)C1=O (centres undefined)
TGI (SK-OV-3 ovarian): 0.965 µM
TGI (IGROV1 ovarian): 3.35 µM
TGI (SK-MEL-2 melanoma): 0.693 µM
TGI (HCT-15 colon): 0.726 µM
TGI (HOP-62 NSCLC): 0.625 µM
TGI (K-562 leukemia): > 35.2 µM
TGI (CCRF-CEM leukemia): 59 µM
TGI (SK-MEL-28 melanoma): 1.14 µM
TGI (MOLT-4 leukemia): > 100 µM

N#C/C(C(=O)Nc1ccc(Cl)cc1)=C(/N)N1CCCCC1
TGI (SK-OV-3 ovarian): > 100 µM
TGI (IGROV1 ovarian): > 100 µM
TGI (NCI/ADR-RES ovarian): > 100 µM
TGI (MCF7 breast): > 100 µM
TGI (SK-MEL-2 melanoma): > 100 µM
TGI (HCT-15 colon): > 100 µM
TGI (HOP-62 NSCLC): > 100 µM
TGI (K-562 leukemia): > 100 µM
TGI (CCRF-CEM leukemia): > 100 µM
TGI (SK-MEL-28 melanoma): > 100 µM
TGI (MOLT-4 leukemia): > 100 µM

C=CCSC1=N/C(=C\c2cccs2)C(=O)N1CC=C
TGI (SK-OV-3 ovarian): > 100 µM
TGI (HS 578T breast): > 100 µM
TGI (IGROV1 ovarian): > 100 µM
TGI (NCI/ADR-RES ovarian): > 100 µM
TGI (MCF7 breast): > 100 µM
TGI (SK-MEL-2 melanoma): > 100 µM
TGI (HCT-15 colon): > 100 µM
TGI (HOP-62 NSCLC): > 100 µM
TGI (K-562 leukemia): > 100 µM
TGI (SK-MEL-28 melanoma): > 100 µM
TGI (MOLT-4 leukemia): 62.2 µM

CCN(CC)CCNC(=O)c1cc2cc(NC(=O)c3cc4cc(NC(=O)c5cc6cc(N)ccc6[nH]5)ccc4[nH]3)ccc2[nH]1
TGI (SK-OV-3 ovarian): > 100 µM
TGI (HS 578T breast): > 100 µM
TGI (IGROV1 ovarian): > 100 µM
TGI (NCI/ADR-RES ovarian): > 100 µM
TGI (SK-MEL-2 melanoma): > 100 µM
TGI (HCT-15 colon): > 100 µM
TGI (HOP-62 NSCLC): > 100 µM
TGI (K-562 leukemia): > 100 µM
TGI (CCRF-CEM leukemia): > 100 µM
TGI (SK-MEL-28 melanoma): > 100 µM
TGI (MOLT-4 leukemia): > 100 µM

COc1ccc(OCc2ccc3nc(-c4ccccc4)c(Cl)nc3c2)cc1
TGI (HS 578T breast): > 100 µM
TGI (IGROV1 ovarian): > 100 µM
TGI (NCI/ADR-RES ovarian): > 100 µM
TGI (MCF7 breast): > 100 µM
TGI (SK-MEL-2 melanoma): > 100 µM
TGI (HCT-15 colon): > 100 µM
TGI (HOP-62 NSCLC): 28.6 µM
TGI (K-562 leukemia): > 100 µM
TGI (CCRF-CEM leukemia): 45.4 µM
TGI (SK-MEL-28 melanoma): > 100 µM
TGI (MOLT-4 leukemia): > 100 µM

C=C[C@@H]1C[C@]2(C(=O)OC)Cc3nc4ccccc4nc3CC(C(=O)OC)=C2O1
TGI (SK-OV-3 ovarian): > 100 µM
TGI (HS 578T breast): > 100 µM
TGI (IGROV1 ovarian): > 100 µM
TGI (NCI/ADR-RES ovarian): > 100 µM
TGI (MCF7 breast): > 100 µM
TGI (SK-MEL-2 melanoma): > 100 µM
TGI (HCT-15 colon): > 100 µM
TGI (HOP-62 NSCLC): > 100 µM
TGI (CCRF-CEM leukemia): > 100 µM
TGI (SK-MEL-28 melanoma): > 100 µM
TGI (MOLT-4 leukemia): > 100 µM

CC1CC[C@@]2(OC1)OC1CC3C4CCC5C[C@@H](OC6OC(CO)C(OC7OC(CO)C(O)C(OC8OC(CO)C(O)C(OC9OC(CO)C(O)C(O)C9O)C8O)C7OC7OC(CO)C(O)C(O)C7O)C(O)C6O)[C@H](O)C[C@]5(C)C4CC[C@]3(C)C1[C@@H]2C (some centres undefined)
TGI (SK-OV-3 ovarian): > 80.5 µM
TGI (HS 578T breast): > 80.5 µM
TGI (NCI/ADR-RES ovarian): > 80.5 µM
TGI (MCF7 breast): > 80.5 µM
TGI (HCT-15 colon): > 80.5 µM
TGI (HOP-62 NSCLC): > 80.5 µM
TGI (K-562 leukemia): > 80.5 µM
TGI (CCRF-CEM leukemia): > 80.5 µM
TGI (SK-MEL-28 melanoma): > 80.5 µM

Nc1cc(N2CCCC2)nc(=O)n1-c1ccccc1
TGI (IGROV1 ovarian): > 100 µM
TGI (NCI/ADR-RES ovarian): > 100 µM
TGI (MCF7 breast): > 100 µM
TGI (SK-MEL-2 melanoma): > 100 µM
TGI (HCT-15 colon): > 100 µM
TGI (HOP-62 NSCLC): > 100 µM
TGI (K-562 leukemia): > 100 µM
TGI (CCRF-CEM leukemia): > 100 µM
TGI (SK-MEL-28 melanoma): > 100 µM
TGI (MOLT-4 leukemia): > 100 µM

— PubChem BioAssay (NCI)
